Experiments:
[1] = tested on: B. napus microspore culture; assay: embryo yield in B. napus microspore culture; assay type: cell-based, Brassica napus
Procedure: Brassica napus L. DH12075 was used as a donor plant for microspore embryo culture. The B. napus plant growth and microspore isolation procedures were performed as described in Custers, J. B. M. (2003) “Microspore culture in rapeseed (Brassica napus L.)” in Doubled haploid production in crop plants: a manual, M. Maluszynski, K. J. Kasha, B. P. Forster, and I. Szarejko, eds (Dordrecht: Kluwer Academic Publishers), pp. 185-193. Flower buds for microspore culture were grouped by size (measured from the tip of the flower bud to the bottom of the sepal), ranging from 3.0 to 3.5 mm for DH4079 and from 2.6 to 4.0 mm for DH12075. The microspores were isolated and cultured in NLN-13 medium (see Lichter, R. (1982) […]. For induction of embryogenesis, microspores were cultured in the dark at 33° C. for 20 hours and subsequently transferred to 25° C. Non-induced microspore cultures were cultured continuously at 25° C. or 18° C. Trichostatin A (TSA, Sigma-Aldrich) was prepared in DMSO. Freshly isolated microspores were inoculated in a medium containing TSA or the same volume of DMSO as a control and cultured for 20 hours at the temperature indicated for each experiment. After this period, the cultures were centrifuged at 200 g for 3 min, resuspended in fresh NLN-13 medium without TSA, and transferred to 25° C.
The developmental fate of heat-stressed control cultures and cultures exposed to both heat-stress and TSA was followed by examining older cultures in more detail. […] Heat-stressed microspores and pollen were treated with a range of TSA concentrations, and the cultures examined after five and 15 days using DAPI staining to characterize the different multicellular structures that developed.
Microspores and immature pollen from different bud sizes were cultured in the presence of different concentrations of TSA compared with the equivalent volume of DMSO (control) at three temperatures: A-D=33° C., D-F=25° C., G-H=18° C. For each treatment, the samples are ranked from left to right along the z-axis according to the developmental stage of the microspores and pollen. […] The microspores and pollen were categorized as follows: mid-uninucleate microspore (white bars), late-uninucleate microspore (grey bars), and binucleate pollen (black bars) stages. […] The percentage of cells that divided gametopyhytically or sporophytically after five days of microspore culture at B=33° C., E=25° C., H=18° C. […] Dead microspores and pollen were not counted. […]

[2] = tested on: Arabidopsis immature male gametophytes; assay: Arabidopsis anther culture, sporophytic division of immature male gametophytes; assay type: cell-based; conditions: Col0 anthers, 25° C., 0.5 μM TSA, five days; never observed without TSA
Procedure: Arabidopsis flower buds at stage 11 were collected for anther culture. Flower buds were surface sterilized in 2% bleach for 10 minutes, then rinsed three times in distilled water. The anthers (without filament) were placed in a liquid NLN-13 medium containing 0.5 μM TSA or the same volume of DMSO and then cut in half transversely in the medium to release the microspores. The cultures were placed at 25° C. for 20 hours in the dark. The medium was then replaced by fresh NLN-13 medium by pipetting gently, and the cultures incubated at 25° C. for an additional four days. Free and loosely attached microspores were collected and stained with DAPI. Arabidopsis hda T-DNA insertion lines were obtained from Nottingham Arabidopsis Stock Centre. At least 300 microspores per sample were counted.
Multicellular structures that resemble the Type II and IV structures seen in Brassica microspore culture are produced when stage 11 Arabidopsis anthers are cultured at 25° C. with 0.5 μM TSA. […] TSA induces embryogenic cell divisions in Arabidopsis immature male gametophytes. Panels show: (A)=DAPI stained anther in TSA-treated culture showing multicellular, sporophytic structures derived from immature male gametophytes (arrow). […] (B)=cleared anther from a control culture showing lack of sporophytic cell proliferation. […]

Compound: CC(/C=C/C(=O)NO)=C\[C@@H](C)C(=O)c1ccc(N(C)C)cc1 [TSA, trichostatin A]
- embryo production ([1]; culture at 25° C. (no heat stress), practically none in controls): Up to 0.2%
- development of histodifferentiated embryos ([1]; cultured at 18° C.): did not develop
- embryo abundance relative to control cultures ([1]; heat-stressed cultures, 0.05 μM TSA): up to five times more abundant than in control cultures
- heart to cotyledon stage embryos ([1]; heat-stressed cultures, 0.5 μM TSA, 15 days, control up to 0.3%): up to 0.05%
- percentage of immature male gametophytes that divided sporophytically [2]: 0-5%
